Literature values as cited in patent US5556638A, “Flurbiprofen-containing immediate-effect medicament and its use” (Alfatec Pharma GMBH, priority 1991, dated 1996).

Legend:
[1] = prior art
inflammation = conditions: optical antipodes of flurbiprofen
pain = conditions: optical antipodes of flurbiprofen
[2] = racemate

CC(C(=O)O)c1ccc(-c2ccccc2)c(F)c1 (stereo not drawn) [flurbiprofen, 2-(2-fluoro-4-biphenylyl)propionic acid]
site of absorption ([1]; oral): only absorbed in the upper small intestine

C[C@H](C(=O)O)c1ccc(-c2ccccc2)c(F)c1 [S-flurbiprofen]
anti-inflammatory action (inflammation): marked anti-inflammatory action

C[C@@H](C(=O)O)c1ccc(-c2ccccc2)c(F)c1 [R-flurbiprofen]
analgesic action (pain): pronounced analgesic action

CC(C(=O)O)c1ccc(-c2ccccc2)c(F)c1 (racemic) [Racemic flurbiprofen]
undesirable side effects [2]: significant undesirable side effects
time until therapeutic concentrations are achieved ([1]; racemic flurbiprofen): 4 to 5 h
tmax ([1]; racemic flurbiprofen, blood level maximum): 1 to 2 h
